{"source": "patent US7875587B2", "about": "“Peptide analogues of GIP for treatment of diabetes, insulin resistance and obesity” (UUTECH Limited, priority 2004, dated 2011)", "test_system": "ob/ob mice", "experiment": "Once daily i.p. (Pro3)GIP over 11 days in ob/ob mice (Example 5)", "assay_type": "in vivo, mouse", "experimental": "Animals. Obese diabetic (ob/ob) mice derived from the colony maintained at Aston University, UK (Bailey, C. J., et al., 1982, Int. J. Obes. 6:11-21) were used at 12-16 weeks of age. Animals were age-matched, divided into groups and housed individually in an air-conditioned room at 22±2° C. with a 12 hour light: 12 hour dark cycle. Drinking water and a standard rodent maintenance diet (Trouw Nutrition, Cheshire, UK) were freely available. All animal experiments were carried out in accordance with the UK Animals (Scientific Procedures) Act 1986.\nExperimental protocols for ob/ob mouse studies. Initially, extended biological activity of (Pro^3)GIP was examined in 18-hour fasted ob/ob mice 4 hours after administration. Thereafter, over an 11-day period, mice received once daily i.p. injections (17:00 hours) of either saline vehicle (0.9% (w/v), NaCl) or (Pro^3)GIP (25 nmol/kg body wt). During a subsequent 9-day period, observations were continued following discontinuation of (Pro^3)GIP administration. Food intake and body weight were recorded daily whilst plasma glucose and insulin concentrations were monitored at intervals of 2-6 days. Whole blood for the measurement of glycated hemoglobin was taken on days 11 and 20. Intraperitoneal glucose tolerance (18 mmol/kg body wt), metabolic response to native GIP (25 nmol/kg body wt) and insulin sensitivity (50 U/kg body wt) tests were performed on days 11 and 20. Mice fasted for 18 hours were used to examine the metabolic response to 15 minutes feeding. In a separate series, pancreatic tissues were excised at the end of the 11-day treatment period or 9 days following discontinuation of (Pro^3)GIP and processed for immunohistochemistry or measurement of insulin following extraction with 5 ml/g of ice-cold acid ethanol (750 ml ethanol, 235 ml water, 15 ml concentrated HCl). Blood samples taken from the cut tip of the tail vein of conscious mice at the times indicated in the Figures were immediately centrifuged using a Beckman microcentrifuge (Beckman Instruments, UK) for 30 seconds at 13,000 g. The resulting plasma was then aliquoted into fresh Eppendorf tubes and stored at −20° C. prior to glucose and insulin determinations.\nBiochemical analysis. Plasma glucose was assayed by an automated glucose oxidase procedure (Stevens, J. F., 1971, Clin. Chem. Acta 32:199-201) using a Beckman Glucose Analyzer II (Beckman Instruments, Galway, Ireland). Plasma and pancreatic insulin were assayed by a modified dextran-coated charcoal radioimmunoassay (Flatt, P. R. et al., 1981, Diabetologia 20:573-577). Glycated hemoglobin was determined using cation-exchange columns (Sigma, Poole, Dorset, UK) with measurement of absorbance (415 nm) in wash and eluting buffer using a VersaMax Microplate Spectrophotometer (Molecular Devices, Wokingham, Berkshire, UK).\nImmunocytochemistry. Tissue fixed in 4% paraformaldehyde/PBS and embedded in paraffin was sectioned at 8 μm. After de-waxing, sections were incubated with blocking serum (Vector Laboratories, Calif., USA) prior to exposure to insulin antibody. Tissue samples were then incubated consecutively with secondary biotinylated universal, pan-specific antibody (Vector Laboratories, Calif., USA) and streptavidin/peroxidase preformed complex (Vector Laboratories, Calif., USA). Following washing, the stained pancreatic tissue was counterstained with hematoxylin (BDH Chemicals, Dorset, UK) and then plunged into acid methanol (500 ml methanol, 500 ml H2O and 2.5 ml concentrated HCl) prior to dehydration and mounting in Depex (BDH Chemicals, Dorset, UK). The stained slides were viewed under a microscope (Nikon Eclipse E2000, Diagnostic Instruments Incorporated, Michigan, USA) attached to a JVC camera Model KY-F55B (JVC, London, UK) and analyzed using Kromoscan imaging software (Kinetic Imaging Limited, Faversham, Kent, UK). […]", "key": {"[1]": {"settings": "4 hours after 25 nmoles/kg, 18 h fasted, vs saline"}}, "note": "No end group written: not given here."}
{"sequence": "YAPGTFISDYSIAMDKIHQQDFVNWLLAQKGKKNDWKHNITQ [(Pro^3)GIP]", "values": [{"measurement": "reduction of non-fasting plasma glucose levels", "setting": "25 nmol/kg/day i.p., 11 days, vs controls", "result": 1.6, "unit": "fold"}, {"measurement": "reduction of overall glycemic excursion (AUC) to a glucose load", "setting": "25 nmol/kg/day i.p., 11 days, vs controls (abstract of Example 5)", "result": 1.6, "unit": "fold"}, {"measurement": "decrease of AUC insulin in response to native GIP with glucose", "setting": "[1]", "result": 25, "unit": "%"}, {"measurement": "increase of AUC glucose in response to native GIP with glucose", "setting": "[1]", "result": 151, "unit": "%"}, {"measurement": "glycated hemoglobin", "setting": "9 days following cessation of daily injection", "result": "7.7±0.4", "unit": "%"}, {"measurement": "average islet diameter", "setting": "11 days treatment", "result": "markedly and significantly reduced"}, {"measurement": "enhancement of insulin sensitivity", "setting": "11 days treatment", "result": 1.6, "unit": "fold"}, {"measurement": "islet number per pancreatic section", "setting": "11 days treatment", "result": "No significant differences"}, {"measurement": "lowering of overall plasma glucose response to feeding", "setting": "11 days treatment", "result": 1.4, "unit": "fold"}, {"measurement": "lowering of overall plasma insulin response to feeding", "setting": "11 days treatment", "result": 1.5, "unit": "fold"}, {"measurement": "pancreatic weight", "setting": "11 days treatment", "result": "no effect"}, {"measurement": "plasma insulin AUC 0-60 minutes after i.p. glucose", "setting": "11 days treatment", "result": "significantly decreased"}, {"measurement": "reduction of pancreatic insulin content", "setting": "11 days treatment", "result": 1.3, "unit": "fold"}, {"measurement": "reduction of plasma glucose AUC 0-60 minutes after i.p. glucose", "setting": "11 days treatment, glucose 18 mmoles/kg, vs controls", "result": 2.1, "unit": "fold"}, {"measurement": "hypoglycemic action of insulin (AUC and post injection values)", "setting": "11 days treatment, insulin 50 U/kg i.p.", "result": "significantly (P<0.05) augmented"}, {"measurement": "pancreatic insulin content", "setting": "11 days treatment, vs controls", "result": "significantly (P<0.05) decreased"}, {"measurement": "glycated hemoglobin", "setting": "after 11 days treatment", "result": "6.9±0.2", "unit": "%"}, {"measurement": "glycated hemoglobin", "setting": "before treatment", "result": "8.0±0.3", "unit": "%"}, {"measurement": "body weight", "setting": "daily 25 nmol/kg, 11 days", "result": "no effect"}, {"measurement": "food intake", "setting": "daily 25 nmol/kg, 11 days", "result": "no effect"}, {"measurement": "non-fasting plasma glucose", "setting": "day 11", "result": "significantly reduced"}, {"measurement": "plasma insulin levels", "setting": "during or after the treatment period", "result": "No significant changes"}, {"measurement": "adverse effects", "setting": "following administration to ob/ob mice", "result": "No adverse effects were observed"}, {"measurement": "increase in the glucose-lowering action of exogenous insulin", "setting": "insulin sensitivity test after 11 days", "result": 57, "unit": "%"}]}
